Values after ≈ are worked out from the molar mass of the structure shown.
How the values were obtained:
[1] = test system: Candida albicans; assay: Fungicidal activity against Candida albicans ATCC 10231 after 1 hr by CLSI M26-A method; format: functional; settings: ATCC 10231, 1 h
[2] = Chemical stability of the compound assessed as half life in acetate buffer at pH 4; format: physicochemical
[3] = test system: Escherichia coli; assay: Bactericidal activity against Escherichia coli ATCC 25922 after 1 hr by CLSI M26-A method; format: functional; settings: ATCC 25922, 1 h
[4] = Chemical stability of the compound assessed as half life in phosphate buffer at pH 7; format: physicochemical
[5] = test system: Staphylococcus aureus; assay: Bactericidal activity against Staphylococcus aureus ATCC 29213 after 1 hr by CLSI M26-A method; format: functional; settings: ATCC 29213, 1 h
[6] = Chemical stability of the compound assessed as half life in 0.6% borate buffer at pH 7; format: physicochemical

SMILES | MFC [1] [µg/mL] | half-life [2] [days] | MBC [3] [µg/mL] | half-life [4] [days] | MBC [5] [µg/mL] | half-life [6] [days]
CC(C)(CC[N+](C)(C)C)N(Cl)Cl.[Cl-] | 64 | > 281 | 2 | > 210 | 2 | 
CC(C)(CCC[N+](C)(C)C)N(Cl)Cl.[Cl-] | 256 | 80 | 8 | 56 | 2 | 
CC(C)(CCS(=O)(=O)CCS(=O)(=O)O)N(Cl)Cl | 16 (≈ 48.7 µM) | > 342 | 8 (≈ 24.4 µM) | > 342 | 2 (≈ 6.09 µM) | 
CC(C)(CCS(=O)(=O)CCCS(=O)(=O)O)N(Cl)Cl | 1020 (≈ 2990 µM) | > 112 | 2 (≈ 5.84 µM) | 85 | 2 (≈ 5.84 µM) | 
CC(C)(CCS(=O)(=O)CCS(=O)(=O)CCS(=O)(=O)O)N(Cl)Cl | 32 (≈ 76.1 µM) | > 73 | 2 (≈ 4.76 µM) |  | 4 (≈ 9.52 µM) | 14
CC(C)(CCS(=O)(=O)CC[N+](C)(C)C)N(Cl)Cl.[Cl-] | 32 | 6 | 8 |  | 2 | 
CC(C)(CCS(=O)(=O)CCC[N+](C)(C)C)N(Cl)Cl.[Cl-] | 32 | > 160 | 8 |  | 2 | 70
CC(C)(CCS(=O)(=O)CCCCCCCCS(=O)(=O)O)N(Cl)Cl | 8 (≈ 19.4 µM) | 182 | 2 (≈ 4.85 µM) |  | 4 (≈ 9.7 µM) | 70
CC(C)(CCS(=O)(=O)CCCCCCCC[N+](C)(C)C)N(Cl)Cl.[Cl-] | 32 | 127 | 8 | 74 | 8 | 
CC(C)(CCCS(=O)(=O)CCS(=O)(=O)O)N(Cl)Cl | 128 (≈ 374 µM) | 45 | 8 (≈ 23.4 µM) |  | 2 (≈ 5.84 µM) | 45
CC(C)(CS(=O)(=O)[O-])N(Cl)Cl.[Na+] | 32 | > 730 | 2 | > 300 | 2 | 
CC(C)(CS(=O)(=O)CCS(=O)(=O)O)N(Cl)Cl | 64 (≈ 204 µM) | > 93 | 4 (≈ 12.7 µM) | 1 | 8 (≈ 25.5 µM) | 
CC(C)(C[N+](C)(C)C)N(Cl)Cl.[Cl-] | 128 | > 325 | 16 | > 396 | 8 | 

Source: ChEMBL document CHEMBL1777687, “Structure stability/activity relationships of sulfone stabilized N,N-dichloroamines” (Bioorg Med Chem Lett, 2011)
